Consider one molecule from US11236090B2, “Substituted glutarimides as CDK inhibitors” (SHANGHAI MEIZER PHARMACEUTICALS CO., LTD., priority 2017, dated 2022).

Assay [1] deals with MCF-7 cells. The experiment in a line: Inhibition of proliferation of MCF-7 cells by MTT assay. Type of assay: cell-based. The note with it: Homo sapiens, MCF7, 48 hours. How it is done:
The inhibitory effect of the compound on the proliferation of MCF-7 cells (commercially available from ATCC) was determined by the MTT method in vitro. […] Each compound was dissolved in dimethyl sulfoxide (DMSO) to obtain a solution with a concentration of 10 mM, and then diluted to the desired concentration with a phosphate buffer solution. The solution was added to the above 96-well plate. Each concentration has 2 wells with 10 μl per well. Each concentration was tested in duplicate. As a control, DMSO was diluted in the corresponding gradient and then added to the plate. After the 96-well plate was cultured in a 37° C., 5% CO2 cell incubator for 48 hours, 20 μl of MTT solution in 5 mg/ml was added to each well, and it was cultured in the incubator for another 3 to 4 hours. 100 μl of lysate was added to each well and the cells were further incubated overnight in the incubator to fully dissolve the formazan crystals generated. The light absorption value at 492 nm was measured. The relative survival rate of the cells after the compound treatment was calculated based on the light absorption value. The IC50 of the compound against MCF-7 cells was calculated by software.

In assay [2] the target is T1, CDK6 (Homo sapiens, UniProt Q00534). In words: CDK6 protein degradation activity by Western blot in MCF-7 cells. Type of assay: cell-based. Also noted: host or cells: MCF-7. The note with it: MCF7, compound 1 μM, 24 hours. How it is done:
(§1) Cell lines: MCF-7 cell lines (human breast cancer cells, available from ATCC) were cultured in MEM medium containing 10% calf serum in a 37° C., 5% CO2, and saturated humidity incubator. DMSO control group and compound intervention group (1 μM) were set. Cells were collected after the treatment for 24 hours, then 100 μL of pre-chilled cell lysate was added and cells were lysed on ice for 30 minutes, total cell protein was extracted, and protein concentration was determined and quantified by bicinchoninic acid method. After routine gelatinization, loading, electrophoresis, then transferring to membrane and blocking, rabbit anti-human CDK4 (1:450) and rabbit anti-human CDK6 (1:150) were added and incubated at 4° C. overnight. The mixture was rinsed and then secondary antibody IgG (1:5000) was added. After the rinsing it was developed by the ECL developing solution, the Bio-Rad gel imaging system was used for scanning and imaging, and the computer software was used for analysis. […] (GAPDH) was used as an internal control. Image J software was used to analyze the gray scale of each band to calculate the degradation rate of the compound to degrade CDK4/6 protein.
Target sequence in this assay (Q00534 whole entry): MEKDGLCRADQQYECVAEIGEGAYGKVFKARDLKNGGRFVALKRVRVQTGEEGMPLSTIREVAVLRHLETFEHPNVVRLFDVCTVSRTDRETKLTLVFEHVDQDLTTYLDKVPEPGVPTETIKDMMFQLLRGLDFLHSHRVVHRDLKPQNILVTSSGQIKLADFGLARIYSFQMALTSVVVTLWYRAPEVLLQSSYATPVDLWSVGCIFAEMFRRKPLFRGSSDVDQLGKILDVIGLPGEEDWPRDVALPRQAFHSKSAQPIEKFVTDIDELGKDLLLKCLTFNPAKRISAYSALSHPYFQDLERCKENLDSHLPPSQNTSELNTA

The target of assay [3] is T2, CDK4 (Homo sapiens, UniProt P11802). The experiment in a line: CDK4 protein degradation activity by Western blot in MCF-7 cells. The note with it: MCF7, compound 1 μM, 24 hours. More on the design: host or cells: MCF-7. Type of assay: cell-based. How it is done: as §1
In general terms: Immunoblotting shows a protein as a band on a membrane.
Target sequence in this assay (P11802 whole entry): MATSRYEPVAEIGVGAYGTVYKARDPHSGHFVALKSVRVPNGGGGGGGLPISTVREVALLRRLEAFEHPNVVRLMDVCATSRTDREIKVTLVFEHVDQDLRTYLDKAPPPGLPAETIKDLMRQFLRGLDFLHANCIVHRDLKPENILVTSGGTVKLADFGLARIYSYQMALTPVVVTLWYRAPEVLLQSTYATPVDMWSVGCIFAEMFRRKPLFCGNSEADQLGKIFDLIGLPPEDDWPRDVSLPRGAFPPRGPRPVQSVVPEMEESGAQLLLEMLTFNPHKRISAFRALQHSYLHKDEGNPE

The test system of assay [4] is T47D cells. In words: Inhibition of proliferation of T47D cells by CCK8 assay. The following applies: Homo sapiens, CCK8, 72 hours. Type of assay: cell-based. As for the experimental part:
The inhibitory effect of the compound on the proliferation of T47D cells (commercially available from ATCC) was determined by the CCK8 method in vitro. The experimental steps were as follows: T47D cells were cultured in 1640 medium of 10% calf serum, seeded in a 96-well plate with 1.5×10^5/ml, and placed in a 37° C., 5% CO2 incubator. Each compound or the positive drug (Ribociclib) was dissolved in dimethyl sulfoxide (DMSO) to obtain a solution with a concentration of 100 mM, and then diluted to the desired concentration with the culture medium. The solutions were then added to the above 96-well plates. Each concentration has 3 wells with 50 μl per well. As a control, DMSO was diluted in the corresponding gradient and then added to the plate. After the 96-well plate was cultured in a 37° C., 5% CO2 cell incubator for 72 hours, 110 μl of CCK8 solution in 9% was added to each well, and it was cultured in the incubator for another 4 hours. The light absorption value at 450 nm was measured. The relative survival rate of the cells after the compound treatment was calculated based on the light absorption value. The IC50 of the compound against T47D cells was calculated by software.
On the technique in general: Tetrazolium assays rely on reduction of a dye to a coloured formazan, in cell work by metabolically active cells.

Assay [5] deals with T1, CDK6. The experiment in a line: CDK6 inhibition by Caliper assay. Type of assay: biochemical. The following applies: compound 100 nM. As for the experimental part:
(§2) The experimental steps were as follows:
(§3) Preparation of 1×kinase reaction buffer (50 mM HEPES, PH 7.5; 0.0015% Brij-35) and kinase reaction termination solution (100 mM HEPES, PH 7.5; 0.0015% Brij-35; 0.2% Coating Reagent; 50 mM EDTA) preparation of experimental samples: 100 μL of 5 μM sample solution (dissolved in 100% DMSO) was added to a 96-well plate to obtain a 50×sample solution. As controls, two wells containing only 100 μL of 100% DMSO were set on the same plate. One was served as a control without samples and the other was served as a control without enzymes. 10 μL of sample and 90 μL of 1×kinase reaction buffer were added to a 96-well plate as a transfer plate. The transfer plate was shaken for 10 minutes.
(§4) Preparation of the test plate: taking 5 μL of each of the prepared samples in the 96-well transfer plate into a 384-well plate. Kinase reaction: to 5 μL of 5×compound solution (dissolved in DMSO, diluted 10 times with water) was added 10 μL of 2.5×CDK4/6 kinase solution (kinase was diluted with 1×kinase reaction buffer), which was incubated at room temperature for 10 min, and then 10 μL of 2.5×substrate peptide solution (FAM-labeled peptide and ATP were diluted with 1×kinase reaction buffer) was added. Termination of the kinase reaction: 25 μL of kinase reaction termination solution was added after being reacted at 28° C. for a period of time. The fluorescence (F) was tested on a Caliper and data was collected. The inhibition rate of kinase activity was calculated: the percent inhibition rate of kinase activity=(FDMSO control−Fsample)/(FDMSO control−Fnegative control)×100%, with DMSO as the solution control, and no kinase as the negative control.
Target sequence in this assay (Q00534 whole entry, species assumed): as the sequence (Q00534 whole entry) above
Target sequence in this assay (P30281 whole entry partner, species assumed): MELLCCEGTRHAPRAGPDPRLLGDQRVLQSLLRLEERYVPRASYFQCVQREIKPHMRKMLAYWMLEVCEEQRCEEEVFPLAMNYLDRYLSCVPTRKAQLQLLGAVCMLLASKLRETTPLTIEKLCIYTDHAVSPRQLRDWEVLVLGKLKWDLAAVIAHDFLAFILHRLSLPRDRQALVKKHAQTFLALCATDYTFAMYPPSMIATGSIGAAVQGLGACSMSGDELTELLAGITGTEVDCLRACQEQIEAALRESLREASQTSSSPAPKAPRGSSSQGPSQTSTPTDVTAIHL

Assay [6] has as its target T2, CDK4. The experiment in a line: CDK4 inhibition by Caliper assay. Type of assay: biochemical. The note with it: compound 100 nM. As for the experimental part: as §2, §3, §4
Target sequence in this assay (P11802 whole entry, species assumed): as the sequence (P11802 whole entry) above
Target sequence in this assay (P30281 whole entry partner, species assumed): as the sequence (P30281 whole entry partner, species assumed) above

One may read the IC50 as the concentration at which inhibition is half-maximal. Lower therefore signals higher potency. Usually Dmax stands for the largest share of the target that was removed. A lower Dmax goes with a partial loss of target. As usually defined, the inhibition is the change of the read-out against control, counted positive when it falls. With `CN(C)C(=O)c1cc2cnc(Nc3ccc(N4CCN(CCCCCC(=O)Nc5cccc6c5C(=O)N(C5CCC(=O)NC5=O)C6=O)CC4)cn3)nc2n1C1CCCC1` (stereo not drawn) [Compound 3], the results for the IC50 in assay [1] and in assay [4] were 0.08 µM and 13.7 µM, respectively. For the same molecule, the maximal degradation (Dmax) at 1 µM in assay [2] was 50 to 90%; in assay [3], more than 90%. Also, the values for the inhibition at 0.1 µM in assay [5] and in assay [6] were 86% and 97%, respectively.
